Each structure is given as a SMILES string.

The values that follow come from patent publication US8716266B2, “Use of PKC-iota inhibitors for the treatment of glioma” (University of South Florida, priority 2011, dated 2014).

Data set [1] has as its system Human glioblastoma cell line U-87 MG. Description: Human glioblastoma U-87 MG subcutaneous xenograft in athymic nude mice, tumor volume. It counts as in vivo, female athymic nude mice. The source says:
The cell injection site was marked.

Data set [2] can be described thus: Body weight and survival of xenografted mice under ICA-1 treatment.
Procedure: Briefly, nine female athymic nude mice, weighing 17 to 23 grams, were divided into 3 groups: Group 1, mice received human glioblastoma xenografts and were treated with saline controls (n=3); Group 2, mice received human glioblastoma xenografts and were treated with ICA-1 (80 mg/kg/day; 20 μM) immediately after glioma implantation (n=3); Group 3, mice received human glioblastoma xenografts and were treated with ICA-1 (80 mg/kg/day, 20 μM) when the tumor reached 100 mm^3 on day 5 post implantation (n=3).
Human glioblastoma cell line U-87 MG, a commonly-studied human grade IV glioblastoma-astrocytoma, epithelial-like cell line, was injected subcutaneously into right flank (1×10^6 cells/flank in 0.1 ml PBS) of the mice. The cell injection site was marked. After glioblastoma implantation, ICA-1 (80 mg/kg/day; 20 μM) was subcutaneously injected, daily, into and around the tumor/cell injection area of Groups 2 and 3 mice; Group 1 mice was treated with vehicle. Tumor volume was calculated using the following formula: length×width×width×½.
Where [3] appears, read: Group 2: ICA-1 80 mg/kg/day daily from implantation.

As to `NC(=O)c1ncn(C2CC(COP(=O)(O)O)C(O)C2O)c1N` (stereo not drawn) [ICA-1, 1H-imidazole-4-carboxamide, 5-amino-1-[2,3-dihydroxy-4-[(phosphonooxy)methyl]cyclopentyl]-[1R-(1α, 2β, 3β, 4α)]], the tumor growth entry is “prevented tumor growth” in data set [1] (Group 2: ICA-1 80 mg/kg/day (20 μM) s.c. daily into and around tumor area, started immediately after glioma implantation); “prevented tumor growth” in data set [1] (Group 3: ICA-1 80 mg/kg/day (20 μM) s.c. daily, started when tumor reached 100 mm^3 on day 5 post implantation). In addition, in data set [1] (Group 3: ICA-1 80 mg/kg/day, 4 days of treatment (day 5-day 9 post implantation)), the glioma volume result is listed as “reduced glioma volume”. Also, the “glioma size after the ICA-1 treatment was terminated” value in data set [1] (Group 3: after termination of treatment on day 9 post implantation) is on record as “continued to reduce”. Besides, the “glioma size relative to that of the control mice” value in data set [1] (Group 3: end of study period, 8 days after termination of ICA-1 treatment (80 mg/kg/day, day 5-day 9)) was found to be 53%. The body weight entry is recorded as “lost significant weight” in data set [2] (setting [3]) and “did not exhibit significant weight loss” in data set [2] (Group 3: ICA-1 80 mg/kg/day for 4 days (day 5-day 9 post implantation)). Further, the survival / lethality entry in data set [2] (setting [3]) is recorded as “died seven days post ICA-1 treatment”.
